Assay results published in patent publication US7005434B2, “Compounds and uses thereof” (SB Corporation, priority 2001, dated 2006).

Test system: angiogenesis (vascular density) in air pouch granuloma
Assay: Murine air pouch granuloma model of inflammatory angiogenesis
Type: in vivo, mice
Details: positive control
Text: C. Measurement of Angiogenesis in vivo—Murine Air Pouch Granuloma Model
The murine airpouch granuloma model of chronic inflammation (Kimura et al., 1985, J. Pharmacobio-Dyn., 8:393–400; Colville-Nash et al., 1995, J. Pharm. and Exp. Ther., 274:1463–1472) whose disclosure is incorporated herein by reference in its entirety, is characterized by inflammatory cell influx, fibrous tissue proliferation and intense angiogenesis. […] In addition, angiogenesis can be accurately quantitated by a vascular casting method.
Day −1, mice are anesthetized using Aerrane (isoflurane) gas (5%) or other approved methods, after which 3 mls of air is injected into the dorsal subcutaneous tissue using a 27 g needle. Mice are allowed to recover. […]
When the granuloma is removed it is weighed and then dried for 3 days at 45° C. and reweighed. […] The carmine content is then determined against a carmine red standard curve (0.5 to 2 mg/ml) generated in extracted tissue from non carmine treated animals and read at 490 nm. Sample and standard values are determined typically using DeltaSoft Elisa analysis software (Biometallics Inc., Princeton, N.J.). […]
The effect of compounds on vascular density is typically measured 6 days after induction of the granuloma. This time point has been determined to be at or near the peak of angiogenesis. […] Medroxyprogesterone has no effect on granuloma size as measured by dry weight.

For medroxyprogesterone, the “maximum reduction (vascular density / vascular index)” value (measured 6 days after induction) was 50% and the “effect on granuloma size as measured by dry weight” value was “no effect”.
